Measured values reported in patent US20140005070A1, “MARKERS ASSOCIATED WITH CYCLIN-DEPENDENT KINASE INHIBITORS” (Novartis AG, priority 2011, published 2014).
Entries after “also recorded” stand apart in the source; their conditions may differ. Starred links: 1 amine or outer side, 2 acyl side, 3 side chain; linkers in the order of their positions; H or OH if unused. Positions of bridges follow the written chain, without caps; N, C: chain ends. Non-standard residues stand in square brackets, D forms with d. Residues, ends and D or L forms follow the SMILES beside them. Chains are numbered I, II in the order given. Actinocin(9to1) = Cc1c2oc3c(C)ccc(C(=O)[*:1])c3nc-2c(C(=O)[*:2])c(N)c1=O; NMeV = CN[C@H](C(=O)O)C(C)C; Sar = CNCC(=O)O

Tests used:
MYC = experiment: Dog toxicology study, TaqMan mRNA in white blood cells after CDKI(12): MYC; format: in vivo; conditions: any of the tested doses (0.1, 0.15 mg/kg), FIG. 10
Method: (§1) As part of a dog toxicology study, the pharmacodynamic markers MEPCE, MYC and MCL1 were measured by TaqMan® in white blood cells at various time points after CDKI(12) treatment.
(§2) The study had three groups of three dogs each. Dogs in Group 1 (#1001, #1002, and #1003) were treated with vehicle, dogs in Group 3 (#3001, #3002, and #3003) were treated with CDKI(12) at 0.1 mg/kg and dogs in Group 5 (#5001, #5002, and #5003) were treated with CDKI(12) at 0.15 mg/kg. Samples were collected before treatment 0 hour timepoint; 4 hours, 8 hours and 24 hours after treatment, for a total of 12 samples per group. Blood samples were received frozen in QIAGEN RNAprotect® Animal Blood tubes (Cat. #76554). RNA samples were extracted using the QIAGEN RNeasy® Protect Animal Blood kit (Cat. #73224). RNA samples were quantified using the RNA Quant-iT RNA assay® from Invitrogen (Cat. #Q32852) and read on an Invitrogen Qubit fluorometer (Cat. #Q32857). […] The relative quantification method was used to analyze the data; this method uses one sample as a calibrator sample and express mRNA levels relative to that sample. The results are expressed as RQ values (Relative Quantification) with RQ Min and RQ Max values determining a 95% confidence interval for the RQ value. The samples were grouped according to treatment and time point and data from three dogs, each measured in triplicate, were averaged. […]

MCL1 = experiment: Dog toxicology study, TaqMan mRNA in white blood cells after CDKI(12): MCL1; format: in vivo; conditions: any of the tested doses (0.1, 0.15 mg/kg), two probes, FIG. 11
Method: as §1, §2

MEPCE [1] = experiment: Dog toxicology study, TaqMan mRNA in white blood cells after CDKI(12): MEPCE; format: in vivo
Method: as §1
The study had three groups of three dogs each. Dogs in Group 1 (#1001, #1002, and #1003) were treated with vehicle, dogs in Group 3 (#3001, #3002, and #3003) were treated with CDKI(12) at 0.1 mg/kg and dogs in Group 5 (#5001, #5002, and #5003) were treated with CDKI(12) at 0.15 mg/kg. Samples were collected before treatment 0 hour timepoint; 4 hours, 8 hours and 24 hours after treatment, for a total of 12 samples per group. Blood samples were received frozen in QIAGEN RNAprotect® Animal Blood tubes (Cat. #76554). RNA samples were extracted using the QIAGEN RNeasy® Protect Animal Blood kit (Cat. #73224). RNA samples were quantified using the RNA Quant-iT RNA assay® from Invitrogen (Cat. #Q32852) and read on an Invitrogen Qubit fluorometer (Cat. #Q32857). First strand cDNA synthesis was performed on 500 ng of RNA in a reaction volume of 20 μl using a High Capacity cDNA Reverse Transcription Kit from Applied Biosystems (Cat. #4368814). The cDNA samples were then diluted to 2 ng/μl (10 ng in 5 μl in each reaction). Each TaqMan® reaction contained: 5 μl of cDNA, 1.25 μl of each probe (18S rRNA and gene of interest), 5 μl of water and 12.5 μl of TaqMan® Gene Expression Master Mix from Applied Biosystems (Cat. #4369016) for a total volume of 25 μl. TaqMan® reactions were run in triplicates on an ABI 7500® machine. The 18S rRNA level was used as an endogenous control to correct for variations in cDNA input. The relative quantification method was used to analyze the data; this method uses one sample as a calibrator sample and express mRNA levels relative to that sample. The results are expressed as RQ values (Relative Quantification) with RQ Min and RQ Max values determining a 95% confidence interval for the RQ value. The samples were grouped according to treatment and time point and data from three dogs, each measured in triplicate, were averaged. The vehicle group at 0 hour timepoint was used as the calibrator sample thus allowing us to measure changes in mRNA levels in response to the test article at various time points. The logarithm of the RQ values are plotted so that increases or decreases from the initial value can be more easily represented; on a logarithmic scale a 10-fold increase or 10-fold decrease in RQ value are represented as +1 and −1 respectively.
We have previously shown that the MEPCE mRNA is particularly sensitive to CDK9 inhibition and any CDKI (see Examples above). […] The mRNA levels were determined by TaqMan® using the relative quantification method. The calibrator sample is vehicle at 0 hour timepoint. […]

MCL1 protein = experiment: Western blot of anti-apoptotic and pro-apoptotic family members (FIG. 5); format: cell-based; conditions: lung cancer cell line
Method: After treatment with a CDKI, cells were lysed in modified RIPA buffer containing 50 mM TRIS pH 7.4, 150 mM NaCl, 1 mM EDTA, 1% Brij-35, 0.1% deoxycholate, protease inhibitors (Roche Molecular Biochemicals, Mannheim, Germany). SDS-PAGE (4-12% gel) was used to resolve the proteins in the lysate. After electrophoresis, the proteins were electrotransferred onto a polyvinylidene fluoride microporous membrane and immunodetected using standard procedures. FIG. 4 is a Western blot of the multiple myeloma line NCI-H929, treated with CDKI(7) or DMSO and gene expression analyzed at certain time points during the treatment. […] Thus, the reduction in expression of genes in response to CDKI seen at the mRNA level by microarray is confirmed at the protein level by Western blotting.
FIG. 5 is a Western blot comparing the reduction of expression of anti-apoptotic and pro-apoptotic family members after treatment with CDKI(8).

MEPCE [2] = experiment: MEPCE expression after treatment with CDK9 / transcription elongation inhibitors (FIG. 3); format: cell-based

Row | SMILES | MYC mRNA regulation (MYC) | MCL1 mRNA regulation (MCL1) | MEPCE mRNA regulation (MEPCE [1]; 0.1 mg/kg, FIG. 9, 0.1 mg/kg) | MEPCE mRNA level at 4 and 8 hours (MEPCE [1]; 0.15 mg/kg, 4 and 8 hours) | MEPCE mRNA level by 24 hours (MEPCE [1]; 0.15 mg/kg, 24 hours) | MEPCE mRNA regulation (MEPCE [1]; 0.15 mg/kg, FIG. 9) | expression of MCL1 protein (MCL1 protein; 2 hours after treatment) | expression of MCL1 protein (MCL1 protein; after 16 hour exposure) | MEPCE expression (MEPCE [2])
1 | COC[C@@H](C)N[C@H]1CC[C@H](Nc2cc(-c3cccc(NCC4(C#N)CCOCC4)n3)c(Cl)cn2)CC1 [CDKI(12)] | does not show any significant down regulation; also recorded: not significantly down regulated | does not show any significant down regulation; also recorded: not significantly down regulated | less down regulation; also recorded: clear down regulation | reduced | returns to pretreatment levels | clear down regulation |  |  | 
2 | N[C@H]1CC[C@H](Nc2cc(-c3cccc(NCc4cccc(F)c4)n3)c(Cl)cn2)CC1 [CDKI(8)] |  |  |  |  |  |  | reduced | further reduced | reduced
3 | Cc1c2oc3c(C)ccc(C(=O)N[C@@H]4C(=O)N[C@H](C(C)C)C(=O)N5CCC[C@H]5C(=O)N(C)CC(=O)N(C)[C@@H](C(C)C)C(=O)O[C@@H]4C)c3nc-2c(C(=O)N[C@@H]2C(=O)N[C@H](C(C)C)C(=O)N3CCC[C@H]3C(=O)N(C)CC(=O)N(C)[C@@H](C(C)C)C(=O)O[C@@H]2C)c(N)c1=O [Actinomycin D, reference compound] (I: T[dV]P[Sar][NMeV] / II: T[dV]P[Sar][NMeV]; ester I:1-I:C, II:1-II:C; linker I:N-II:N via Actinocin(9to1)) |  |  |  |  |  |  |  |  | reduces the expression of MEPCE
